IC50 data for nine molecules are collected here from patent publication US5340801A, “Compounds having cholecystokinin and gastrin antagonistic properties” (Rhone-Poulenc Rorer Pharmaceuticals Inc., priority 1991, dated 1994).

pIC50: −log10 of the molar value. *1 amine or outer side, *2 acyl side, *3 side chain or, on linkers, in order; H or OH if unused. Where a SMILES comes first, the peptide text is derived from it. [ ]: non-standard residue; d: D form. The star is where a group is joined. Hyp = O=C(O)[C@@H]1C[C@@H](O)CN1; βNA = c1ccc2cc(N*)ccc2c1; 2Abz = Nc1ccccc1C(=O)O; CO = O=C([*:1])[*:2]; Bn = c1ccc(C*)cc1

One test has as its target T1, CCK-A receptor (Rattus norvegicus, UniProt P30551).
T1 construct: from tissue; host or cells: rat (Sprague-Dawley) pancreas membrane homogenate
T1 sequence (P30551 1-444): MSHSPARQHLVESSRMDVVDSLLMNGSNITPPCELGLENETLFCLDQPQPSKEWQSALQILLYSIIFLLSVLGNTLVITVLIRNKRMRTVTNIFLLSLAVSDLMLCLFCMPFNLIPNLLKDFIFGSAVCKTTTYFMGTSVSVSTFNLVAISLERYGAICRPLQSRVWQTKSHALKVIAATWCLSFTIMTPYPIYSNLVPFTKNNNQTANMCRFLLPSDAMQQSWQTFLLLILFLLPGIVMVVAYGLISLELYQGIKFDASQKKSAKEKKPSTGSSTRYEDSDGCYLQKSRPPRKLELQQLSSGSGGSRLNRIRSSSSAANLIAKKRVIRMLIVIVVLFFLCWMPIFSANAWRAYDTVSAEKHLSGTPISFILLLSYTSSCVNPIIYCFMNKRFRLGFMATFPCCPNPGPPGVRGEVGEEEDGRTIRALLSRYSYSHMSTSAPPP
As to the kind of experiment: CCK-A Receptor Binding Assay. The conditions noted are these: rat pancreas membranes, displacement of 3H-L-364,718 (0.2 nM), 37° C., 30 minutes; read-out: IC50 CCK-A (In Vitro Binding Data). From the text:
(§1) The effectiveness of the compounds of this invention as gastrin or cholecystokinin antagonists may be determined by the following pharmacologic tests which evaluate the gastrin and cholecystokinin antagonist activity of said compounds. The CCK-A Receptor Binding Assay and the Gastrin Receptor Binding Assay are standard test procedures. The CCK-A Receptor Binding Assay is essentially that of Chang, et al., "Characterization of the Binding of [^3 H]-(±)-L-364,718: A New Potent, Nonpeptide Cholecystokinin Antagonist Radioligand Selective for Peripheral Receptors", Molecular Pharmacology, 30: 212-217 (1986). The Gastrin Receptor Binding Assay is essentially that of Chang, et al., "Characterization of [^3 H]Pentagastrin Binding in Guinea Pig Gastric Glands - An Alternative Convenient Ligand for Receptor Binding Assay", Biochemical and Biophysical Research Communications, 134 (2): 895-899 (1986).
CCK-A Receptor Binding Assay
Wash Buffer (for use with Brandel Cell Harvester):
30 liters (L) of 50 mM Tris, pH 7.7: Dissolve 1 81.7 g Tris base in 4 L deionized water at room temperature. Adjust pH to 7.7 with 6N HCl and Q.S. to 30 L.
50 mM Tris-Cl, 5 mM MgCl2, 5 mM dithiothreitol, 0.14 mg/ml bacitracin, and 2 mg/ml bovine serum albumin (BSA).
1 liter of 5X stock buffer:
30.28 g Tris base per 800 ml deionized water, 5.08 g MgCl2 ·6H20, pH to 7.7 at room temperature with 6N HCl and Q.S. to 1 liter, store at 4° C.
250 ml working buffer (kept on ice):
50 ml of 5X stock buffer 0.1928 g dithiothreitol (5 mM), 35 mg bacitracin (0.14 mg/ml), and 0.5 g BSA (2mg/ml).
Unlabeled L-364,718 (nonpeptide ligand):
Unlabeled L-364,718 (N-(2,3-dihydro-1-methyl-2-oxo-5-phenyl-1H-1,4-benzodiazepin-3-yl)-1H-indole-2-carboxamide) (300 nM final concentration) is used to define nonspecific binding. A […] solution is made in absolute ethanol and stored at -70° C. Aliquots are diluted 100-fold in the assay.
A Sprague-Dawley rat is sacrificed by asphyxiation with carbon dioxide and the pancreas removed. The tissue is immersed in cold wash buffer and carefully trimmed of fat, connective tissue, blood vessels, blotted and weighed. The tissue is homogenized in a Sorvall SS-34 centrifuge tube in 50 volumes of wash buffer using a Polytron at setting 7 for 15 seconds. The tissue is centrifuged (Sorvall SS-34) at 19,000 rpm for 10 min. The supernatant is poured off and the pellet resuspended in sufficient buffer to obtain a concentration of 40 mg tissue wet weight/mi. Separate aliquots (2.3ml) are placed in each of 8 centrifuge tubes and centrifuged as before. The supernatants are poured off and the pellets stored at -70° C. Stored pellets are sufficient for the assay of 160 tubes and are stable for 1-2 months.
During the assay the stored membranes are resuspended in 40 ml of assay buffer by scraping the pellet off the wall of the centrifuge tube and washing it into a teflon-glass homogenizer. Membranes are resuspended by 5 passes with the teflon pestle and the membranes stored on ice until ready for use.
Preparation of Compounds:
Compounds of the present invention to be tested are prepared in DMSO (dimethyl sulfoxide) or in assay buffer. The majority of compounds of the present invention active as CCK antagonists generally require DMSO for complete solubility. Approximately 2-3 mg of compound is weighed directly into a 13×100 mm test tube and sufficient DMSO added to obtain a working stock solution at a concentration 100 fold greater than the highest concentration being tested in the assay. A total of 10 μl of each concentration of drug is added into a final volume of 1 ml to yield a 100 fold dilution of the working stock solution. Control binding tubes ("totals and nonspecifics") are also treated with 10 μl DMSO.
^3 H-L-364,718 is obtained from New England Nuclear (Cat. #971) and is used as supplied. […]
In general terms: Displacement assays read how much labelled ligand stays bound in the presence of the test substance.

For the next test, the target named is T2, gastrin receptor (Cavia porcellus, UniProt H0VZC5).
T2 construct: The fundic mucosa is gently scraped off the submucosa; from tissue; host or cells: guinea pig (Hartley) fundic mucosa gastric glands, collagenase-dispersed
T2 sequence (H0VZC5 1-426): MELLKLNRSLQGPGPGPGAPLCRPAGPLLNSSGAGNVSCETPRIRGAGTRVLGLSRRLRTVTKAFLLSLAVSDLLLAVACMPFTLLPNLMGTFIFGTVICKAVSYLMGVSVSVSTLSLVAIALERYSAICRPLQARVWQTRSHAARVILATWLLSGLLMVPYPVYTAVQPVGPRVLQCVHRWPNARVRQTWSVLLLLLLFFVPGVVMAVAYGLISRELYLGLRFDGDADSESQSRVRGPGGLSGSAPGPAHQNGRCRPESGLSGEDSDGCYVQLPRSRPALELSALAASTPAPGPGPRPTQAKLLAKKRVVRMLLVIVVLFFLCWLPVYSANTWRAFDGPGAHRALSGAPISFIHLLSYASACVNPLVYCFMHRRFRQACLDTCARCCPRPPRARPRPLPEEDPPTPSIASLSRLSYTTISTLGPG
As to the kind of experiment: Gastrin Receptor Binding Assay. Particulars: guinea pig gastric glands, displacement of 125I-(Leu-15)-Gastrin, 25° C., 30 minutes; read-out: IC50 Gastrin (In Vitro Binding Data).
Description: as §1
Gastrin Receptor Binding Assay
Phosphate Buffered Saline (PBS): 8.743 g NaCl, 523 mg K2 HPO4 and 76.8 mg NaH2 PO4 is dissolved in 900 ml of deionized water, the pH of the solution is adjusted to 7.3 with 5N NaOH, then Q.S. to 1 L.
Buffer A: Powdered Basal Medium Eagle (BME) containing Earle's Salts, L-glutamine and 25 mM HEPES without bicarbonate (Sigma Cat. number B 4391) sufficient to make 3 liters is stirred into 2.7 L of deionized water, […] sodium bicarbonate is added and the mixture stirred to give dissolution. The solution is then equilibrated with 95% O2 /5% CO2 gas followed by titration to a pH of 7.4 with NaOH, then Q.S. to 3 L.
Buffer B: 18.75 mg of collagenase A and 25 mg of pH neutralized BSA is dissolved in 25 ml of Buffer A.
Buffer C: 0.3 g of BSA is dissolved in 300 ml of Buffer A.
Buffer D: 6.25 mg Bacitracin is dissolved in 25 ml of Buffer A.
A guinea pig (Hartley Strain) weighing 150-200 grams, is sacrificed by CO2 asphyxiation and the stomach immediately excised, cut along the greater curvature, cleaned out and immediately immersed in a beaker containing cold PBS, pH 7.3, to insure thorough cleaning. The fundic mucosa is gently scraped off the submucosa and added to a preweighed 50 ml plastic centrifuge tube containing 30 ml of cold Buffer A. The weight of the plastic centrifuge tube containing the buffer is then subtracted from the combined weight of the mucosa and the buffer-containing tube to give the weight of the mucosa. The weight of the mucosa thus determined is recorded for later calculations. The mucosa is then washed twice in Buffer A. After the final wash, the tissue is minced and is placed in a 100-ml glass beaker containing about 1.0 ml of Buffer A, and washed twice again by repeated centrifugation at 50Xg for 5 minutes each and aspiration of supernatant. The washed tissue fragments are then added to a glass Erlenmeyer flask containing 25 ml of Buffer B and incubated in a Dubnoff shaking water bath at 37° C. for 30 minutes in a 95% O2 /5% CO2 atmosphere. After the incubation, the digested tissue fragments in the Collegenase-buffer solution are triturated, filtered through a 200-micron nylon mesh and centrifuged at 50Xg for 5 minutes. The supernatant is aspirated and discarded, the tissue washed 2X in Buffer C, resuspended in same buffer, incubated in a 37° C water bath in an atmosphere of 95% O2 /5% CO2 for 5 minutes, and centrifuged. The pelleted glands are suspended in Buffer D at a desired concentration of 2×10^5 glands/ml to use in the receptor binding assay.
Assay Buffer: Buffer A as above
^125 l-(Leu-15)-Gastrin: 100 microcurie dissolved in 2.0 ml of Buffer A to make 50 microcurie/ml; stored in 50 μl aliquots under Argon at -70° C.
^125 I-(15-methionine)-Human Gastrin: 50 microcurie/ml in deionized water, stored in 50 μl aliquots as above.
(Leu 15)-Gastrin 17:5.2 mg of (Leu-15)- Gastrin is dissolved in 10 ml of Buffer A and stored in 30 μl aliquots. At the time of assay a 1:10 dilution is made and 10 μl/assay tube is used. […]

Broadly, the pIC50 is the negative decadic logarithm of the IC50, by convention in mol/L. As for `Cc1cccc(NC(=O)N2C[C@H](OCc3ccccc3)C[C@H]2C(=O)N2CCc3c([nH]c4ccccc34)C2)c1` [Example 1, 2-[(N-(3-methyl)phenylcarbamoyl-4(R)-benzyloxy)-L-prolyl]-1,2,3,4-tetrahydro-9H-pyrido[3,4-b]indole], the pIC50 was 5.05 at CCK-A receptor and less than 3.52 at gastrin receptor.
Taken in the same sequence, the figures for `COc1ccc(NC(=O)N2C[C@H](OCc3ccccc3)C[C@H]2C(=O)N2CCc3c([nH]c4ccccc34)C2)cc1` [Example 2, 2-[(N-(4-methoxy)phenylcarbamoyl-4(R)-benzyloxy)-L-prolyl]-1,2,3,4-tetrahydro-9H-pyrido[3,4-b]indole] were 4.82 and 3.92.
The like results for `Cc1cccc(NC(=O)N2c3ccccc3C[C@H]2C(=O)N2CCc3c([nH]c4ccccc34)C2)c1` [Example 3, 2-[(N-(3-methyl)phenylcarbamoylindolin-2(S)-yl)carbonyl]-1,2,3,4-tetrahydro-9H-pyrido[3,4-b]indole] were, in that order, 4.52 and less than 3.52.
The like results for `O=C([C@H]1CCCN1C(=O)Nc1ccc2ccccc2c1)N1CCc2c([nH]c3ccccc23)C1` [Example 4, 2-(N-naphth-2-ylcarbamoyl-D-prolyl)-1,2,3,4-tetrahydro-9H-pyrido[3,4-b]indole] were, in that order, 5.14 and 4.99.
For the molecule `Cc1cccc(NC(=O)N2CCC[C@@H]2C(=O)N2CCc3c([nH]c4ccccc34)C2)c1` [Example 5, 2-[N-(3-methyl)phenylcarbamoyl-D-prolyl]-1,2,3,4-tetrahydro-9H-pyrido[3,4-b]indole], the negative-log IC50 (pIC50) on CCK-A receptor was 4.43; at gastrin receptor, less than 4.52.
Taken in the same sequence, the figures for `Cc1cccc(NC(=O)N2CCC[C@H]2C(=O)N2CCc3c([nH]c4ccccc34)C2)c1` [Example 6, 2-[N-(3-methyl)phenylcarbamoyl-L-prolyl]-1,2,3,4-tetrahydro-9H-pyrido[3,4-b]indole] were 4.43 and less than 4.52.
The like results for `Cc1cccc(NC(=O)N2C[C@H](OCc3ccccc3)C[C@H]2C(=O)N[C@H](CC(C)C)C(=O)N[C@H](CC(=O)O)C(N)=O)c1` [Example 7] were, in that order, 5.52 and 5.59.
As for `O=C(O)c1ccccc1NC(=O)[C@@H]1CCCN1C(=O)[C@@H]1C[C@@H](OCc2ccccc2)CN1C(=O)Nc1ccc2ccccc2c1` [Example 9, 2-[(N-(4(R)-benzyloxy-N-naphth-2-ylcarbamoyl-L-prolyl)-L-prolyl)amino]benzoic acid] ({βNA-CO}-[Hyp](Bn)-Pro-[2Abz]-OH), the negative logarithm of the IC50 (pIC50) on gastrin receptor was 6.89.
Same read-out and setting: then `O=C(O)c1ccccc1NC(=O)[C@@H]1CCCN1C(=O)[C@@H]1C[C@@H](OCc2ccccc2)CN1C(=O)Nc1cccc2ccccc12` [Example 11, 2-[(N-(4(R)benzyloxy-N-naphth-1-ylcarbamoyl-L-prolyl)-L-prolyl)amino]benzoic acid], with 6.70.
